From patent EP0812190B1 (priority 1993, dated 1995)
Where two headings read alike, the source gives them in different places. Marks after values point to notes of the source that are not given here.

Assays:
[1] = system: closed head injury; conditions: 0.1 mg/kg i.p. at 0, 4, 8 and 12 h after head trauma
Description: (§1) Head trauma was induced in male rats under ether anesthesia by a well calibrated weight-drop device that falls over the exposed skull, covering the left cerebral hemisphere, 1-2 mm lateral to the midline, in the midcoronal plane.
These criteria, referred to as the Neurological Severity Score (NSS), consist of a series of reflexes and motor functions. Points are given based on deficits in these criteria. At 24h the rats were reevaluated.
(§2) [R] (+)PAI Mesylate was dissolved in water. The rats were injected intraperitoneally at a dose of 0.1 mg/kg, 0, 4, 8 and 12 h after induction of head trauma. Control rats were treated with water at the same times.

[2] = system: crush injury of the optic nerve
Description: • a) General. […] At short terms, metabolic measurements were monitored in terms of the mitochondrial NADH/NAD ratio, which depends on the activity of the electron transport system, and thus indicate levels of energy production. Changes in ability of the nerve to produce energy as a consequence of injury were determined by comparing NADH levels in response to artificial transient anoxic insult before and after the injury. • b) Surface fluorometry - reflectometry. Monitoring of the intramitochondrial NADH redox state is based on the fact that NADH, unlike the oxidized form NAD^+, fluoresces when illuminated […]. A flexible Y-shaped bundle of optic fibers (light guide) was used to transmit the light to and from the optic nerve. […] Changes in the reflected light were correlated with changes in tissue absorption caused by hemodynamic effects and with movements of the optic nerve secondary to alterations in arterial blood pressure and nerve volume. […] Animal utilization was in accord with the ARVO Resolution on the use of animals in research. Male Sprague-Dawley (SPD) rats weighing 300-400g were anesthetized with sodium pentobarbitone (50 mg/kg intraperitoneally). With the animal's head held in place by a head holder, a lateral canthotomy was performed under a binocular operating microscope and the conjuctiva was incised lateral to the cornea.

[3] = system: NMDA-induced cell death of cerebellum cells; test: cells
Description: Procedures: Cultures of mechanically dissociated neonatal rat cerebellum. […] The cerebella are then dissociated after 20-25 passages through a sterile 13 gauge, 10 cm long stainless steel needle attached to a 5 ml syringe with an inserted 45 µm pore size nylon sieve. The dissociated cells are centrifuged at 200g for 5 minutes, the supernatant discarded and the cells resuspended in enriched medium. The cell viability is determined by the trypan blue exclusion test. […] After 4 days in culture, the media are replaced with media containing the desired test compounds. Experiments are done in duplicate and repeated 2 or 3 times. […] Nerve cell survival is evaluated by phase contrast microscopy and trypan blue staining after 24 h.

[4] = system: closed head injury; conditions: 24 h after trauma; 0.1 mg/kg i.p. at 0, 4, 8 and 12 h
Description: as §1, §2

[5] = system: α-MpT-induced hypokinesia; test: Reversal of α-MpT-induced hypokinesia in rats; assay type: in vivo
Description: The drug α-MpT is assumed to inhibit the formation of L-DOPA from tyrosine, and consequently the formation of dopamine itself. Lack of CNS dopamine is expressed as hypoactivity. Six month-old male Wistar rats (from Harlan Orkack, UK) were pretreated with saline, [R] […] Two hours later they received i.p. α-MpT at a dose of 100 mg/kg in 0.3-0.5 mL. Controls received saline. Following this, motor activity was recorded in a computerized activity cage for the duration of 10 hours. […] (+)PAI Mesylate at 2 mg/kg.

[6] = system: maximal electroshock seizures; test: animal or person; conditions: mice, 100 mg/kg
Text: The MES test is a classical model to indicate efficacy for partial and generalized seizures in humans. […] Some agents, however, that prevent seizure spread have the side effect of lowering seizure threshold. These agents therefore have both proconvulsive and anticonvulsive side effects.

[7] = system: neurological deficits; conditions: mouse, in vivo, 300 mg/kg
Description: TD50 (median toxic dose). This test measures neurological deficits by the rotorod ataxia test. A mouse is placed on a knurled rod rotating at 6 rpm. It is then determined whether a mouse has the ability to maintain its equilibrium and stay on the rod for one minute in each of three trials.

[8] = system: haloperidol-induced catalepsy
Description: (+)PAI mesylate, or racemic-PAI mesylate. All drugs were administered i.p. in a volume of 0.2 mL. Two hours later, haloperidol was injected s.c. at a dose of 6mg/kg in a volume of 0.1-0.2 mL. Motor coordination tests were made at 3 hours after giving haloperidol, that is, 5 hours after administering the presumed protective drugs.
Motor coordination tests and rigidity were quantified according to three different parameters: (a) ability to walk the length of a horizontal rod, 80 cm-long; (b) ability co climb down, face down, a vertical rod, 80 cm-long; (c) duration of immobility in an unnatural sitting posture whereby the abdomen of the mouse is pressed against a "wall." Full performance as in haloperidol-untreated mice is given the score of 4 in each test, or a total of 12 in all tests. Poor performance is given a score from 1 to 3.

[9] = Rattus norvegicus, 24 h, read-out: Percent Protection
[10] = Rattus norvegicus, 24 h, read-out: Surviving Cells

With `C#CCN[C@@H]1CCc2ccccc21.CS(=O)(=O)O` [[R](+)PAI Mesylate, R-(+)-N-propargyl-1-aminoindan mesylate] the “NSS 1 h” value [1] was 16.7, the “NSS 24 h” value [1] was 10.2 and the “Δ NSS (1h - 24h)” value [1] was 6.5 ± 0.7. For the same compound, the “injury-induced reduction in energy production (NADH response to anoxia)” value ([2]; 2 mg/kg i.p. immediately after injury) was “blocked the injury-induced reduction in energy production”, the “CAP amplitude (Mean ± Std. Error.)” value ([2]; single injection 0.5 mg/kg immediately after injury, 14 days later) was 2104 ± 313 µV and the inhibition at 0.01 µM [3, 9] was 2%. The inhibition at 10 µM [3, 9] was 27%, the viability at 1 µM [3, 10] was 22% and the viability at 10 µM [3, 10] was 37%. For the same compound, the “Percent Protection” value ([3]; cerebellar cell cultures, 1440 min, 1 µM) was 12%, the “Surviving Cells” value ([3]; rat, cerebellar cell cultures, 24 h, 0.01 µM) was 12% of untreated controls and the “% H2O in the brain” value [4] was 82.1 ± 0.6 %. For the same compound, the “Score (total motor activity, 10 hours)” value ([5]; 2 mg/kg i.p., 2 h before α-MpT 100 mg/kg i.p., SE in the line below) was 14,132**, the “% of control” value ([5]; 2 mg/kg i.p., relative to saline control, listed as [R] (+)PAI Mesylate, mesylate) was 89% and the “% of control” value ([5]; 2 mg/kg i.p., relative to saline control, mesylate) was “about 90%”. For the same compound, the “% of control” value ([5]; 5 mg/kg i.p.) was 81%, the “Score (total motor activity, 10 hours)” value ([5]; 5 mg/kg i.p.) was 12,893* and the mice protected [6] was “one out of three”. The acute neurotoxicity [7] was “did not show any neurotoxicity”, the “% of control” value ([8]; 3.0 mg/kg i.p.) was 60% and the “Score+SE” value ([8]; 3.0 mg/kg i.p.) was 6.4±0.5. The “% of control” value ([8]; 5.0 mg/kg i.p.) was 73%, the “Score+SE” value ([8]; 5.0 mg/kg i.p.) was 8.7±0.9 and the “Score+SE” value ([8]; 10 mg/kg i.p.) was 11.3±0.3. The “% of control” value ([8]; 10 mg/kg i.p., listed as [R] (+)PAI Mesylate, mesylate) was 94%, the “% of control” value ([8]; 10 mg/kg i.p., listed as [R] (+)PAI mesylate, mesylate) was “≈ 94%” and the “% of control” value ([8]; 15 mg/kg i.p.) was 90%. For the same compound, the “Score+SE” value ([8]; 15 mg/kg i.p.) was 10.8±0.5 and the “Score+SE” value ([8]; […] i.p. (free base), 2 h before haloperidol 6mg/kg s.c., max score 12) was 7.2±1.
